The values that follow come from patent US11760750B1, “Process for preparing levoketoconazole” (Nuray Chemicals Private Limited, priority 2022, dated 2023).

A short description of data set [1]: Powder flow of crystalline levoketoconazole: bulk density, tapped density, Hausner Ratio, Carr Index (USP <1174>). Type of data set: physicochemical. The procedure:
The Hausner Ratio is a value calculated by dividing the tapped density of the levoketoconazole by the freely settled bulk density of the levoketoconazole. The freely settled bulk density is calculated by pouring a known weight of material into a measuring cylinder and recording the volume. The tapped density is calculated by tapping the cylinder against a surface for a specified numbers of times and recording again the new volume.
The Carr (or Compressibility) Index is frequently used in pharmaceutics as an indication of the compressibility of a powder. The Carr Index may be calculated by dividing the difference of the tapped and bulk densities by the tapped density and then multiplying by 100. In a free-flowing powder, the bulk density and tapped density would be close in value; therefore, the Carr Index would be small. On the other hand, in a poor-flowing powder where there are greater interparticle interactions, the difference between the bulk and tapped density observed would be greater, therefore, the Carr Index would be larger.

A short description of the next data set: Solubility in water. Type of data set: physicochemical.

As for `CC(=O)N1CCN(c2ccc(OC[C@@H]3CO[C@@](Cn4ccnc4)(c4ccc(Cl)cc4Cl)O3)cc2)CC1` [crystalline levoketoconazole, (2S,4R)-cis-1-acetyl-4-[4-[[2-(2,4-dichlorophenyl)-2-(1H-imidazol-1-ylmethyl)-1,3-dioxolan-4-yl]methoxyl]phenyl] piperazine], in data set [1], the “Carr Index (Compressibility Index)” value is “below 15”. The “flowability (flow character by Hausner Ratio)” value in data set [1] is “good”. Also, the bulk density result in data set [1] (100 g sample, 250 mL graduated cylinder) is on record as “about 0.576 g/mL”. Moreover, the “Hausner Ratio” value in data set [1] (500 taps) was found to be 1.120; in data set [1] (1250 taps) it was 1.18. For the same compound, the tapped density entry is “about 0.686 g/mL” in data set [1] (after 500 taps) and “about 0.681 g/mL” in data set [1] (after 1,250 taps). In the data set “Solubility in water”, the solubility in water result is “poorly soluble in water”.
